One series deals with Murine PDE9A (Mus musculus (Mouse), UniProt O70628). Conditions: concentrations below 200 μM; cited from earlier work.
For the next series, the target named is PDE9A (Homo sapiens (Human), UniProt O76083). Conditions: concentrations of up to 100 μM; cited from earlier work.
PDE9A, sequence (O76083 whole entry): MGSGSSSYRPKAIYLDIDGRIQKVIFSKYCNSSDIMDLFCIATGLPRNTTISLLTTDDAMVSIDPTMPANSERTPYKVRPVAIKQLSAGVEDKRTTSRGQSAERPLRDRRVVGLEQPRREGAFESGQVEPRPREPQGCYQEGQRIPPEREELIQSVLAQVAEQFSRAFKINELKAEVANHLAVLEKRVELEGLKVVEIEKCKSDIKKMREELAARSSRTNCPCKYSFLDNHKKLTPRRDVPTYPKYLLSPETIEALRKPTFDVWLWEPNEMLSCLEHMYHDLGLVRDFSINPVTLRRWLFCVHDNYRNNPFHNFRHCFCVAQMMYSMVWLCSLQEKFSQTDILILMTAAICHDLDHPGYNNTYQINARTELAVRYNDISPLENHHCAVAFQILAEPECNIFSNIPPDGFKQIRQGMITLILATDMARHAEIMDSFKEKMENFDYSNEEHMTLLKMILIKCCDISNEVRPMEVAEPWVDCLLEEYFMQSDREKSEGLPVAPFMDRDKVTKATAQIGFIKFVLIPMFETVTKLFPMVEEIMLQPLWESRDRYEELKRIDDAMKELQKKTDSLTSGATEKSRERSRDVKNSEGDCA

Murine PDE9A, sequence (O70628 whole entry): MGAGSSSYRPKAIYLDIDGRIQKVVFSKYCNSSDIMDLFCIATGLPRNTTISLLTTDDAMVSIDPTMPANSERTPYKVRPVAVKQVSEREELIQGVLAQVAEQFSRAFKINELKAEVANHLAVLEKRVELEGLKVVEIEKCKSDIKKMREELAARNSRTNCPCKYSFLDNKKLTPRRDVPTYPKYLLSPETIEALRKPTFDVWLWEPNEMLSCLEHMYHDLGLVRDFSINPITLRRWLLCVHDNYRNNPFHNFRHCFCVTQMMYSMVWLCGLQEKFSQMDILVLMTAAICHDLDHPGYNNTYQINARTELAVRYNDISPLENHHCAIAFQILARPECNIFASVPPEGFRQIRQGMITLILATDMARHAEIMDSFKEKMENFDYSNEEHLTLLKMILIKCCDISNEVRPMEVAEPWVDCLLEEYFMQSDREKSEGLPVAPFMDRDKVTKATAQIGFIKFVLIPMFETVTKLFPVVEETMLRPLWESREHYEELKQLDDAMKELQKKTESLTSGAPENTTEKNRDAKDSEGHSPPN

Broadly, the melting point is the temperature, or range, at which the solid turns liquid. Turning to `O=c1[nH]c(CC2CCCCC2)nc2c1cnn2C1CCCC1`, the melting point was found to be 147 °C. For `CCC(CC)n1ncc2c(=O)[nH]c(CC3C=CCC3)nc21` (stereo not drawn), the melting point was 128 °C. As for `O=c1[nH]c(CC2CCCO2)nc2c1cnn2C1CCCC1` (stereo not drawn), the melting point came out at 179 °C. In turn, `CCC(C)Cc1nc2c(cnn2C2CCCC2)c(=O)[nH]1` (stereo not drawn) displayed a melting point of 86 °C. With `O=c1[nH]c(CC2C=CCC2)nc2c1cnn2C1CCCC1` (stereo not drawn), the melting point was found to be 166 °C. As for `O=c1[nH]c(CCCO)nc2c1cnn2C1CCCC1` [Example 2, 1-Cyclopentyl-6-(3-hydroxypropyl)-1,5-dihydro-4H-pyrazolo[3,4-d]pyrimidin-4-one], the melting point was 138 °C.

With `CC(C)CCc1nc2c(cnn2C2CCCC2)c(=O)[nH]1` [Example 5, 1-Cyclopentyl-6-(3-methylbutyl)-1,5-dihydro-4H-pyrazolo[3,4-d]pyrimidin-4-one], the melting point stood at 133 °C. `CCC(C)Cc1nc2c(cnn2C(CC)CC)c(=O)[nH]1` (stereo not drawn) [Example 7, 1-(1-Ethylpropyl)-6-(2-methylbutyl)-1,5-dihydro-4H-pyrazolo[3,4-d]pyrimidin-4-one]: the melting point is 121 °C. The same measure, in the same setting: with `CCC(CC)n1ncc2c(=O)[nH]c(CCC(C)C)nc21` [Example 8, 1-(1-Ethylpropyl)-6-isopentyl-1,5-dihydro-4H-pyrazolo[3,4-d]pyrimidin-4-one] the figure was 127 °C; with `CCC(CC)n1ncc2c(=O)[nH]c(CC(C)C)nc21` [Example 9, 1-(1-Ethylpropyl)-6-isobutyl-1,5-dihydro-4H-pyrazolo[3,4-d]pyrimidin-4-one], 161 °C. For the molecule `CCCc1nc2c(cnn2C(CC)CC)c(=O)[nH]1` [Example 10, 1-(1-Ethylpropyl)-6-propyl-1,5-dihydro-4H-pyrazolo[3,4-d]pyrimidin-4-one], the melting point turned out to be 127 °C. On the same count and under the same terms, to `CCC(CC)n1ncc2c(=O)[nH]c(CC3CCCO3)nc21` (stereo not drawn) [Example 11, 1-(1-Ethylpropyl)-6-(tetrahydro-2-furanylmethyl)-1,5-dihydro-4H-pyrazolo[3,4-d]-pyrimidin-4-one] belongs 136 °C. The molecule `CCOC(=O)CCc1nc2c(cnn2C(CC)CC)c(=O)[nH]1` [Example 14, Ethyl 4-[1-(1-ethylpropyl)-4-oxo-4,5-dihydro-1H-pyrazolo[3,4-d]pyrimidin-6-yl]-propionate] came in with a melting point of 118 °C. In the case of `CC1CCC(Cc2nc3c(cnn3C3CCCC3)c(=O)[nH]2)CC1` (stereo not drawn) [Example 15, 1-Cyclopentyl-6-[(4-methylcyclohexyl)methyl]-1,5-dihydro-4H-pyrazolo[3,4-d]-pyrimidin-4-one], the melting point came to 126 °C. `CCOC(=O)CCc1nc2c(cnn2C2CCCC2)c(=O)[nH]1` [Example 18, Ethyl 4-[1-cyclopentyl-4-oxo-4,5-dihydro-1H-pyrazolo[3,4-d]pyrimidin-6-yl]-propionate] gave a melting point of 185 °C. Regarding `CCC(CC)n1ncc2c(=O)[nH]c(CC3CCCC3)nc21` [Example 21, 6-(Cyclopentylmethyl)-1-(1-ethylpropyl)-1,5-dihydro-4H-pyrazolo[3,4-d]pyrimidin-4-one], the melting point came to 156 °C. Same read-out and setting: with `CCC(CC)n1ncc2c(=O)[nH]c(CC(C)C(F)(F)F)nc21` (stereo not drawn) [Example 22, 1-(1-Ethylpropyl)-6-(3,3,3-trifluoro-2-methylpropyl)-1,5-dihydro-4H-pyrazolo[3,4-d]pyrimidin-4-one] the figure was 156 °C. Consider `CC(Cc1nc2c(cnn2C2CCCC2)c(=O)[nH]1)C(F)(F)F` (stereo not drawn) [Example 23, 1-(1-Cyclopentyl)-6-(3,3,3-trifluoro-2-methylpropyl)-1,5-dihydro-4H-pyrazolo[3,4-d]pyrimidin-4-one], for which the melting point turned out to be 166 °C. Regarding `CC(C)Cn1c(=O)n(C)c(=O)c2[nH]cnc21` [IBMX], the inhibition result on Murine PDE9A is recorded as “not inhibited”. For the same molecule, the “inhibition on the isolated enzyme” value at PDE9A is listed as “no inhibition”. On to `CC(=O)Nc1ccc(-c2c[nH]c(=O)cn2)cc1` [SKF94120], for which the “inhibition on the isolated enzyme” value at PDE9A was “no inhibition”. Take `OCCN(CCO)c1nc(N2CCCCC2)c2nc(N(CCO)CCO)nc(N3CCCCC3)c2n1` [dipyridamole]: on PDE9A, the “inhibition on the isolated enzyme” value was “no inhibition”. For the molecule `COc1ccc(C2CNC(=O)C2)cc1OC1CCCC1` (stereo not drawn) [rolipram], the “inhibition on the isolated enzyme” value at PDE9A was “no inhibition”. Take `CCOC(=O)C1=C[C@]2(CC)CCCN3CCc4c(n1c1ccccc41)[C@@H]32` [vinpocetine]: the “inhibition on the isolated enzyme” value on PDE9A is “no inhibition”.

The values are drawn from US8741907B2, “Alkyl-substituted pyrazolopyrimidines” (Boehringer Ingelheim International GmbH, priority 2002, dated 2014).
